In patent publication US10683290B2, “Tricyclic compounds as anticancer agents” (BRISTOL-MYERS SQUIBB COMPANY, priority 2015, dated 2020):
pIC50: −log10 of the molar value.

Target: BRD4 (Homo sapiens, UniProt O60885)
Experiment: biochemical
Assay type: binding
Conditions: one of the FRET assays described; read-out: FRET BRD4 IC50

SMILES	pIC50
[2H]C([2H])([2H])c1nnn(C)c1-c1cc2c(cc1F)c1ncc(C(C)(C)O)cc1n2C(c1cc(F)ccn1)C1CCOCC1 (racemic) [Example 60, 2-{8-fluoro-5-[(4-fluoropyridin-2-yl)(oxan-4-yl)methyl]-7-[4-(^2H3)methyl-1-methyl-1H-1,2,3-triazol-5-yl]-5H-pyrido[3,2-b]indol-3-yl}propan-2-ol]	> 8.30
[2H]C([2H])([2H])c1nnn(C)c1-c1cc2c(cc1F)c1ncc(C(C)(C)O)cc1n2C(C1=CCCOC1)c1ccccc1 (racemic) [Example 61, 2-{5-[5,6-dihydro-2H-pyran-3-yl(phenyl)methyl]-8-fluoro-7-[4-(^2H3)methyl-1-methyl-1H-1,2,3-triazol-5-yl]-5H-pyrido[3,2-b]indol-3-yl}propan-2-ol]	> 8.30
[2H]C([2H])([2H])c1nnn(C)c1-c1cc2c(cc1F)c1ncc(C(C)(C)O)cc1n2C(CC1COC1)c1ccccc1 (racemic) [Example 66, 2-{8-fluoro-7-[4-(^2H3)methyl-1-methyl-1H-1,2,3-triazol-5-yl]-5-[2-(oxetan-3-yl)-1-phenylethyl]-5H-pyrido[3,2-b]indol-3-yl}propan-2-ol]	> 9.00
Cc1nnn(C)c1-c1ccc2c3ncc(C(C)(C)O)cc3n(C(CCC(F)(F)F)c3ccccn3)c2c1 (single isomer, unassigned) [Example 6, 2-[7-(dimethyl-1H-1,2,3-triazol-5-yl)-5-[4,4,4-trifluoro-1-(pyridin-2-yl)butyl]-5H-pyrido[3,2-b]indol-3-yl]propan-2-ol]	> 8.30
Cc1nnn(C)c1-c1ccc2c3ncc(C(C)(C)O)cc3n(C(CCC(F)(F)F)c3ccccn3)c2c1 (single isomer, unassigned) [Example 7, 2-[7-(dimethyl-1H-1,2,3-triazol-5-yl)-5-[4,4,4-trifluoro-1-(pyridin-2-yl)butyl]-5H-pyrido[3,2-b]indol-3-yl]propan-2-ol]	> 8.30
Cc1nnn(C)c1-c1cc2c(cc1F)c1ncc(C(C)(O)C3CC3)cc1n2[C@H](c1ccccc1F)C1CCOCC1 (single isomer, unassigned) [Example 23]	> 8.30
Cc1nnn(C)c1-c1cc2c(cc1F)c1ncc(C(C)(O)C3CC3)cc1n2[C@H](c1ccccc1F)C1CCOCC1 (single isomer, unassigned) [Example 24]	> 8.30
[2H]C([2H])([2H])c1nnn(C)c1-c1cc2c(cc1F)c1ncc(C(C)(C)O)cc1n2C(c1ccccn1)C1CCOCC1 (single isomer, unassigned) [Example 36, 2-{8-fluoro-7-[4-(^2H3)methyl-1-methyl-1H-1,2,3-triazol-5-yl}-5-[oxan-4-yl(pyridin-2-yl)methyl]-5H-pyrido[3,2-b]indol-3-yl]propan-2-ol]	> 9.00
[2H]C([2H])([2H])c1nnn(C)c1-c1cc2c(cc1F)c1ncc(C(C)(C)O)cc1n2C(c1ccccn1)C1CCOCC1 (single isomer, unassigned) [Example 37, 2-{8-fluoro-7-[4-(^2H3)methyl-1-methyl-1H-1,2,3-triazol-5-yl}-5-[oxan-4-yl(pyridin-2-yl)methyl]-5H-pyrido[3,2-b]indol-3-yl]propan-2-ol]	> 8.30
[2H]C([2H])([2H])c1nnn(C)c1-c1cc2c(cc1F)c1ncc(C(C)(C)O)cc1n2C(CCC)c1ncccc1F (single isomer, unassigned) [Example 38, 2-{8-fluoro-5-[1-(3-fluoropyridin-2-yl)butyl]-7-[4-(^2H3)methyl-1-methyl-1H-1,2,3-triazol-5-yl}-5H-pyrido[3,2-b]indol-3-yl]propan-2-ol]	> 9.00
[2H]C([2H])([2H])c1nnn(C)c1-c1cc2c(cc1F)c1ncc(C(C)(C)O)cc1n2C(CCC)c1ncccc1F (single isomer, unassigned) [Example 39, 2-{8-fluoro-5-[1-(3-fluoropyridin-2-yl)butyl]-7-[4-(^2H3)methyl-1-methyl-1H-1,2,3-triazol-5-yl}-5H-pyrido[3,2-b]indol-3-yl]propan-2-ol]	> 8.30
[2H]C([2H])([2H])c1nnn(C)c1-c1cc2c(cc1F)c1ncc(C(C)(C)O)cc1n2C(c1ncccc1OC)C1CCOCC1 (single isomer, unassigned) [Example 40, 2-{8-fluoro-5-[(3-methoxypyridin-2-yl)(oxan-4-yl)methyl}-7-[4-(^2H3)methyl-1-methyl-1H-1,2,3-triazol-5-yl]-5H-pyrido[3,2-b]indol-3-yl]propan-2-ol]	> 5.82
[2H]C([2H])([2H])c1nnn(C)c1-c1cc2c(cc1F)c1ncc(C(C)(C)O)cc1n2C(c1ncccc1OC)C1CCOCC1 (single isomer, unassigned) [Example 41, 2-{8-fluoro-5-[(3-methoxypyridin-2-yl)(oxan-4-yl)methyl}-7-[4-(^2H3)methyl-1-methyl-1H-1,2,3-triazol-5-yl]-5H-pyrido[3,2-b]indol-3-yl]propan-2-ol]	> 8.30
[2H]C([2H])([2H])c1nnn(C)c1-c1cc2c(cc1F)c1ncc(C(C)(C)O)cc1n2C(c1ncccc1C)C1CCOCC1 (single isomer, unassigned) [Example 42, 2-{8-fluoro-7-[4-(^2H3)methyl-1-methyl-1H-1,2,3-triazol-5-yl]-5-[(3-methylpyridin-2-yl)(oxan-4-yl)methyl}-5H-pyrido[3,2-b]indol-3-yl]propan-2-ol]	> 8.30
[2H]C([2H])([2H])c1nnn(C)c1-c1cc2c(cc1F)c1ncc(C(C)(C)O)cc1n2C(c1ncccc1C)C1CCOCC1 (single isomer, unassigned) [Example 43, 2-{8-fluoro-7-[4-(^2H3)methyl-1-methyl-1H-1,2,3-triazol-5-yl]-5-[(3-methylpyridin-2-yl)(oxan-4-yl)methyl}-5H-pyrido[3,2-b]indol-3-yl]propan-2-ol]	> 8.30
[2H]C([2H])([2H])c1nnn(C)c1-c1cc2c(cc1F)c1ncc(C(C)(C)O)cc1n2C(c1ccc(F)cn1)C1CCOCC1 (single isomer, unassigned) [Example 44, 2-{8-fluoro-5-[(5-fluoropyridin-2-yl)(oxan-4-yl)methyl}-7-[4-(^2H3)methyl-1-methyl-1H-1,2,3-triazol-5-yl]-5H-pyrido[3,2-b]indol-3-yl]propan-2-ol]	> 5.82
[2H]C([2H])([2H])c1nnn(C)c1-c1cc2c(cc1F)c1ncc(C(C)(C)O)cc1n2C(c1ccc(F)cn1)C1CCOCC1 (single isomer, unassigned) [Example 45, 2-{8-fluoro-5-[(5-fluoropyridin-2-yl)(oxan-4-yl)methyl}-7-[4-(^2H3)methyl-1-methyl-1H-1,2,3-triazol-5-yl]-5H-pyrido[3,2-b]indol-3-yl]propan-2-ol]	> 8.30
[2H]C([2H])([2H])c1nnn(C)c1-c1cc2c(cc1F)c1ncc(C(C)(C)O)cc1n2C(c1ncccn1)C1CCOCC1 (single isomer, unassigned) [Example 46]	> 8.30
[2H]C([2H])([2H])c1nnn(C)c1-c1cc2c(cc1F)c1ncc(C(C)(C)O)cc1n2C(c1ncccn1)C1CCOCC1 (single isomer, unassigned) [Example 47, 2-{8-fluoro-7-[4-(^2H3)methyl-1-methyl-1H-1,2,3-triazol-5-yl]-5-[oxan-4-yl(pyrimidin-2-yl)methyl]-5H-pyrido[3,2-b]indol-3-yl}propan-2-ol]	> 8.30
